Test results from patent publication US20090069418A1, “Compositions and Methods for the Treatment of Disorders Associated with Aberrant Vasodilation” (priority 2007, published 2009).
Where two headings read alike, the source gives them in different places.

Columns and labels:
[1] = AUDA-BE and its metabolites measured in brain tissue; type: in vivo, mice; settings: for levels detected in homogenates of brain tissue: after AUDA-BE injection, methanol/chloroform extraction
From the text: This concentration was also biologically effective in lowering blood pressure in hypertensive model (Imig et al. (2005) Hypertension 46:975-81). Therefore, in these experiments, the levels of sEH inhibitors in the blood are in the concentration range expected to inhibit the enzyme.

[2] = test system: neonatal murine cardiomyocytes; test: Oxygen-glucose deprivation of cultured cardiomyocytes transduced with TAT-hsEH, cell death by propidium iodide; type: cell-based; settings: for cell survival after OGD: all polymorphisms/groups tested except Arg287Gln
Experimental: Post natal Day 7-8 C57BL\6 mice were used. 3-4 hearts were obtained from same-gender mice. Cells were dissociated with 0.625% wt/volume trypsin in Ca^2+ and Mg^2+ free HBSS. The cells were centrifuged and re-suspended in FBS-M199. Cells were supplemented with estrogen-free 15% FBS, 100 U/ml penicillin, 100 μg/ml streptomycin, and 25 μM cytosine arabinoside. The cells were then plated at 37° C. for 1 hour under a water-saturated atmosphere of 5% CO2-[…]. Suspended cells were collected and plated at 1.0×10^5 cells/cm^2 and incubated as above for 24 hours.
Six TAT-hsEH fusion proteins, including one wild type and five EPHX2 mutants (Lys55Arg, Arg103Cys, Cys154Tyr, Arg287Gln, and Arg103Cys/Arg287Gln), were expressed and purified as reported (Koerner et al. (2007) J. Neurosci., 27:4642-4649).
TAT-hsEH fusion proteins were added to the medium of cultured cardiomyocytes to the final concentration of 100 nM. The cells were incubated at 37° C. for 24 hours before the onset of oxygen-glucose deprivation.
For oxygen-glucose deprivation (OGD), cells were placed in a Plexiglas hypoxia chamber under 100% N2 at 37° C. and glucose-free medium (MEM/HBSS). For reoxygenation, cells were placed in 21% O2 (5% CO2) and glucose-replete FBS-M199 medium.
Cell death was assessed via propidium iodide (PI, 5 μM) with >300 cells/sample.
Cultured neonatal murine cardiomyocytes were transduced with five human EPHX2 variants linked to the protein transduction domain TAT. Cultures were subjected to 1.5 hours of oxygen and glucose deprivation followed by 3 hours of re-oxygenation, with or without sEH substrate 14,15-EET. Cell death was assessed by propidium iodide (% of all cells, mean±SEM, n=5-9 replicates). Successful transduction was confirmed by immunoblot. All mutants reduced cell death compared to the human wild-type EPHX2 (rh-sEHWT, 63±1%), but only the Arg287Gln mutations was different from untransduced controls (FIG. 13B).

mice [3] = test: MCAO in mice, infarct size (Example 6); type: in vivo
From the text: Transient focal cerebral ischemia was induced in adult male mice (20 to 26 g body weight) using the intraluminal MCAO technique, as previously described (Alkayed et al. (2001) J. Neurosci., 21:7543-7550). Briefly, mice were anesthetized with halothane (1.5 to 2% in O2-enriched air by face mask), and kept warm with water pads. A small laser-Doppler probe was affixed to skull to monitor cortical perfusion and verify vascular occlusion and reperfusion. A silicone-coated 6-0 nylon monofilament was inserted into the right internal carotid artery (ICA) via the external carotid artery (ECA) until laser-Doppler signal dropped to <30% of baseline. After securing the filament in place, the surgical site was closed, and the animal was awakened and assessed at 2 hours of occlusion for neurological deficit using a simple neurological scoring system as follows: 0=no deficit, 1=failure to extend forelimb, 2=circling, 3=unilateral weakness, 4=no spontaneous motor activity. […] Infarct size was measured at 24 hours after MCAO in 2-mm thick coronal brain sections (5 total) using 2,3,5-triphenyltetrazolium chloride (TTC) staining and digital image analysis. […] Slices were photographed and infracted (unstained) and uninfarcted (red color) areas were measured with MCID software (InterFocus, Linton, England) and integrated across all 5 slices. […]

mice [4] = type: in vivo
From the text: Male mice between the ages of 16-24 weeks were anesthetized with isoflurane (induction 4-5 vol %; maintenance 1-2 vol %), intubated with a 20G plastic IV catheter, and mechanically ventilated using a rodent ventilator (Inspira, volume-controlled, Harvard Apparatus, MA). ECG and rectal temperature were continuously monitored using a PC-based recording device (PowerLab 8/30, ADInstruments, Colorado Springs, Colo.). The animals were positioned in a right lateral decubital position on a heating pad and rectal temperature was maintained at 37° C. throughout the experiment. A PE-10 catheter was inserted into the left jugular vein for intravenous drug infusion. Using a dissecting microscope, a left-sided thoracotomy was performed in the 4th intercostal space. […] A ligature (8-0 Monosof MV-135-4, ⅜ 5 mm tapered needle, Syneture, Norwalk, Colo.) was placed around the left coronary artery (LCA) approximately 2 mm distal to the left atrial margin. The suture was fed through a short section of PE-10 tubing to form a snare to allow temporary occlusion. The LCA was occluded for 40 minutes; occlusion was confirmed by persistent ECG changes during occlusion and visual paling of the left ventricle (LV). After 40 minutes the snare was released and reperfusion was confirmed with visual hyperemia of the LV and return of the ECG changes. After 2 hours of reperfusion the LCA was re-occluded and fluorescent polymer microspheres (0.4% solution, diameter 1-10 μm; Duke Scientific Corporation, Palo Alto, Calif.) were infused via needle puncture of the LV apex. […] Heart was then excised, rinsed in normal saline, and the right and left atria were removed under the dissecting microscope. The remaining left and right ventricles were weighed and then sliced into seven sections (d=1 mm) for imaging and staining.
Heart sections were immediately photographed with a digital camera (Canon Powershot A620) under UV light for determination of AAR. Infarct size (I) was determined by staining the heart sections in 1% 2,3,5 triphenyltetrazolium chloride (TTC) in phosphate buffer at pH 7.4 for 10 minutes, followed by 10% neutral buffered formalin (NBF) bath overnight. Pictures were taken the next day under full spectrum light. TTC stained non-infarcted myocardium red, while infarcted myocardium remained white. Both AAR and I areas were calculated in a blinded fashion using standard imaging software (Photoshop Elements 4). A calibration ruler was present in each picture to convert pixels into volume. TTC slices were volume corrected for dehydration following formalin immersion.
The 14,15-EET was obtained from BIOMOL (Plymouth Meeting, Pa.). It was dissolved in a vehicle composed of 100% ethanol and saline (1:3), resulting in a final ethanol solution of 25%. […] SNC-162, a non-peptide δ-opioid receptor agonist, was used for comparison of the magnitude of cardioprotection found within the epoxide pathway. SNC-162 (0.1 μg/g iv over 10 minutes) was dissolved in 10% DMSO.

[5] = Pharmacokinetics of AUDA-BE and its metabolites in plasma after single intraperitoneal injection; type: in vivo, C57Bl/6 mice
Experimental: A second set of animals was injected with sesame oil alone (vehicle). […] (2002) Biochem. Pharmacol., 63:1599-608; Watanabe et al. (2006) Anal. Chim. Acta., 559:37-44). Briefly, blood samples (10 μL) were collected in 1.5 mL Eppendorf microcentrifuge tubes, weighed, and vortexed with 100 μL of purified water. […] Aliquots (10 μL) were analyzed by liquid chromatography coupled mass spectroscopy LC-MS/MS (Watanabe et al. (2006) Anal. Chim. Acta., 559:37-44; Watanabe and Hammock (2001) Anal. Biochem., 299:227-34). The concentration of sEH inhibitors were quantified in extracts using HPLC with positive mode electrospray ionization and tandem mass spectrometry. Analytes were quantified on a 5-point curve with internal standard methods. Surrogate recoveries were evaluated by quantification against the internal standard. Surrogate recoveries were 70% for all reported plasma samples, the analysis of reagent blanks, matrix spikes, and analytical replicates were used to document method stability during this study. […] Differences in infarct size, enzyme activity, and blood flow rates were analyzed with a t-test for two groups and analysis of variance with post hoc Newman-Keuls multiple range test for multiple groups. The pharmacokinetic profile was examined for goodness of fit to a noncompartmental or multicompartmental models. Pharmacokinetic parameters were then obtained by fitting the blood-concentration-time data to a non-compartmental model with the WinNonlin software (Pharsight, Mountain View, Calif., USA), as described previously (Watanabe et al. (2006) Anal. Chim. Acta., 559:37-44). The criterion for statistical significance was set at P<0.05. All values are reported as mean±s.e.m.

C57Bl/6 mice = test: Middle cerebral artery occlusion in mice, infarct size (Example 2); type: in vivo; settings: MS-PPOH alone
Experimental: (2001) J. Neurosci., 21:7543-50). […] A small laser-Doppler probe was affixed to the skull to monitor cortical perfusion and verify vascular occlusion and reperfusion. […] After securing the filament in place, the surgical site was closed, and the animal was awakened and assessed at 2 hours of occlusion for neurological deficit using a simple neurological scoring system as follows: 0=no deficit, 1=failure to extend forelimb, 2=circling, 3=unilateral weakness, 4=no spontaneous motor activity. Mice with clear neurological deficit were re-anesthetized, laser-Doppler probe re-positioned over same site on the skull, and the occluding filament was withdrawn to allow for reperfusion. Mice were then allowed to recover and observed for 1 day. […] Slices were photographed, and infarcted (unstained) and uninfarcted (red color) areas were measured with MCID software (InterFocus Imaging Ltd, Linton, UK) and integrated across all five slices. To account for the effect of edema, the infarcted area was estimated indirectly by subtracting the uninfarcted area in the ipsilateral hemisphere from the contralateral hemisphere, and expressing infarct volume as a percentage of contralateral hemisphere. […] (2000) J. Physiol. Pharmacol., 51:655-72). […] Animals were randomly assigned to treatment groups.

[6] = given prior to LCA occlusion (PRE)
[7] = AUDA-BE 10 mg/kg intraperitoneal
[8] = single injection of 10 mg/kg AUDA-BE

Compound: 12-(3-adamantan-1-yl-ureido)-butyl acid [AUBA]
- levels detected in homogenates of brain tissue [1]: not

Compound: O=C(c1ccccc1)C1OC1c1ccc(-c2ccccc2)cc1 (stereo not shown) [4-PCO, 4-phenylchalcone oxide]
- cell survival after OGD [2]: improved cell survival significantly

Compound: CCCCCC1OC1C/C=C\C/C=C\C/C=C\CCCC(=O)O (stereo not shown) [14,15-EET]
- infarct size after MCAO (mice [3]; 14,15-EET 1 μg over 24 hours via osmotic minipump, jugular vein, vehicle 34.5±8.6%): 10.9±4.3%
- cell survival after OGD [2]: improved cell survival
- cell death (propidium iodide, % of all cells) ([2]; excess 14,15-EET (1 μM) in Arg287Gln-transduced cardiomyocytes, 1.5 hours OGD, 3 hours re-oxygenation): 45±1%
- Infarct Volume (mice [4]; PRO (given prior to reperfusion)): 12 ± 2 mm^3
- infarct size after myocardial I/R compared to vehicle (mice [4]; given before ischemia or before reperfusion): significantly reduced
- Infarct Volume (mice [4]; [6]): 10 ± 1 mm^3
- bleeding in pilot studies following heparin administration (mice [4]; mouse, in vivo): excessive bleeding
- reducing I/AAR, injection prior to reperfusion compared to pre-ischemic delivery (mice [4]; mouse, in vivo): less effective

Compound: CCCCCC1OC1CCCCCCC/C=C\CCCC(=O)O (stereo not shown) [14,15-EEZE, 14,15-epoxyeicosa-5(Z)-enoic acid]
- infarct size after MCAO (mice [3]; sEHKO mice, 10 μg over 24 hours via minipump, mean±SD, vehicle-treated sEHKO 9.1±9.5): 9.4±12.4

Compound: O=C(O)CCCCCCCCCCCNC(=O)NC12CC3CC(CC(C3)C1)C2 [AUDA, 12-(3-adamantan-1-yl-ureido)-dodecanoic acid]
- peak concentration in plasma [5, 7]: 52 nmol/L
- time of peak concentration in plasma [5, 7]: 1 h
- half time of elimination in plasma ([5]; AUDA-BE 10 mg/kg intraperitoneal, non-compartmental model): 7 h
- maximum concentration in plasma ([5]; AUDA-BE 40 mg/kg intraperitoneal, within the first hour): 4 µmol/L
- MRT ([5]; C57Bl/6, mouse, plasma, ip, 10 mg/kg, read-out: mean residence time in plasma): 9 h
- MRT ([1]; C57Bl/6, mouse, brain, intraperitoneal, 10 mg/kg, read-out: mean residence time in brain): 6 h
- levels detected in homogenates of brain tissue [1]: significant levels
- half-time elimination in brain [1, 8]: 4 h
- time to maximum concentration in brain [1, 8]: ≤ 3 h

Compound: C#CCOc1ccccc1CCCCCC(=O)NS(C)(=O)=O [MS-PPOH, N-methylsulfonyl-6-(2-propargyloxyphenyl)hexanamide]
- infarct size after MCAO (C57Bl/6 mice): 24±6%

Compound: C=CCN1C[C@H](C)N([C@@H](c2ccccc2)c2ccc(C(=O)N(CC)CC)cc2)C[C@H]1C [SNC-162]
- Infarct Volume (mice [4]; [6]): 9 ± 2 mm^3
